This is an account of results in ChEMBL document CHEMBL1201862, “PubChem BioAssay data set” (2004).

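Where inhibition never reached the appropriate level, the endpoint shown equals the highest concentration tested. Otherwise, values were interpolated linearly from a five-concentration, 48-hour dose response in 96-well plates. GI50 is the concentration that inhibits growth by half.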 The source made the active and inactive calls. Cut-off read from the data, not from the text of the source: active = GI50 up to about 1.1 µM and inactive = higher.

Test systems include A498; MOLT-4; SK-OV-3; T47D; UACC-257; SF-295; EKVX; HL-60; OVCAR-8; HOP-62; HOP-92; UACC-62; OVCAR-3; OVCAR-4; MDA-MB-435; MDA-MB-231; SK-MEL-5; M14; KM12.
Assay in all cases: NCI anticancer screen, dose series, 48 h

With `COc1ccc(-c2cc(=O)c3c(OC)c(OC)c(OC)cc3o2)cc1`, the GI50 in the experiment with A498 was 19.8 µM (inactive); with MOLT-4, 18 µM (inactive); with SK-OV-3 it was 24.3 µM (inactive); with T47D it was 17.8 µM (inactive); with UACC-257, 40.8 µM (inactive); with SF-295 it was 24.5 µM (inactive). The GI50 with EKVX is 37.4 µM (inactive); in the experiment on HL-60, 11.7 µM (inactive); in the experiment on OVCAR-8, 35.2 µM (inactive); in the experiment on HOP-62 it was 21.1 µM (inactive); in the experiment with HOP-92, 20.6 µM (inactive); in the experiment on UACC-62 it was 27.5 µM (inactive). Moreover, the GI50 with OVCAR-3 was 26.8 µM (inactive); in the experiment with OVCAR-4, 24.2 µM (inactive); in the experiment on MDA-MB-435, 32.2 µM (inactive); in the experiment on MDA-MB-231, 43.8 µM (inactive); in the experiment with SK-MEL-5, 13.2 µM (inactive); in the experiment on M14, 54.8 µM (inactive).
Take `CSCCC(C(=O)O)N(C)C` (configuration not stated): the GI50 with A498, with SK-OV-3, in the experiment on T47D, in the experiment with UACC-257, in the experiment with SF-295 and with EKVX was > 100 µM (inactive) in each case. The GI50 in the experiment with HL-60, in the experiment on OVCAR-8, in the experiment with KM12, with HOP-62, in the experiment with HOP-92 and in the experiment with UACC-62 was > 100 µM (inactive) in each case. Moreover, the GI50 with OVCAR-3, with OVCAR-4, in the experiment on MDA-MB-435, with MDA-MB-231, in the experiment on SK-MEL-5 and in the experiment on M14 was > 100 µM (inactive) each time.
Take `CN1CCN([C@H]2C[C@H]3[C@@H]4CC=C5C[C@@H](N6CCCC6)CC[C@]5(C)[C@H]4CC[C@]3(C)[C@H]2O)CC1`: the GI50 in the experiment on A498 was 46.1 µM (inactive); with MOLT-4, 23.7 µM (inactive); with SK-OV-3, > 100 µM (inactive); with T47D it was > 100 µM (inactive); in the experiment with UACC-257 it was 23.2 µM (inactive); with SF-295, 48.4 µM (inactive). Moreover, the GI50 with EKVX is > 100 µM (inactive); in the experiment with HL-60, 21.2 µM (inactive); with OVCAR-8 it was 66.8 µM (inactive); with KM12 it was 56 µM (inactive); in the experiment with HOP-62, 51.1 µM (inactive); in the experiment with HOP-92, 84.9 µM (inactive). Further, the GI50 in the experiment on UACC-62 was 67.3 µM (inactive); in the experiment on OVCAR-3 it was > 100 µM (inactive); in the experiment on OVCAR-4 it was > 100 µM (inactive); in the experiment on MDA-MB-435, 26.1 µM (inactive); in the experiment with MDA-MB-231, 74.6 µM (inactive); with SK-MEL-5, 18.8 µM (inactive). Further, the GI50 in the experiment with M14 is 15.6 µM (inactive).
On to `COc1cc(OC)cc(-n2c(N)c(-c3nc4ccccc4s3)c3ccc([N+](=O)[O-])cc3c2=O)c1`, for which the GI50 with A498 is 28.4 µM (inactive); with SK-OV-3 it was 79.6 µM (inactive); in the experiment with T47D it was 17.2 µM (inactive); in the experiment on UACC-257, > 100 µM (inactive); in the experiment on SF-295, 28.5 µM (inactive); in the experiment on HL-60, 0.208 µM (active). In addition, the GI50 in the experiment on OVCAR-8 was 13.3 µM (inactive); in the experiment with KM12 it was 56.9 µM (inactive); in the experiment on HOP-92, 3.27 µM (inactive); with UACC-62 it was > 100 µM (inactive); with OVCAR-4, 17 µM (inactive); in the experiment with MDA-MB-435, > 100 µM (inactive). Also, the GI50 with MDA-MB-231 is 21.3 µM (inactive); with SK-MEL-5 it was 45.8 µM (inactive).
With `O=C1OC(c2ccccc2)=N/C1=C\c1ccc(Cl)cc1`, the GI50 in the experiment on A498, in the experiment with MOLT-4, in the experiment with SK-OV-3, with T47D, with UACC-257 and in the experiment with SF-295 was > 100 µM (inactive) each time. Moreover, the GI50 with EKVX, in the experiment on HL-60, in the experiment with OVCAR-8, in the experiment with KM12, with HOP-62 and in the experiment with HOP-92 was > 100 µM (inactive) throughout. The GI50 in the experiment with UACC-62, in the experiment with OVCAR-3, in the experiment on OVCAR-4, with MDA-MB-435, with MDA-MB-231 and with SK-MEL-5 was > 100 µM (inactive) in each case. The GI50 with M14 is > 100 µM (inactive).
With `CC(CCCCNC(=O)OC(C)(C)C)NC(=O)NC(C)CCCCNC(=O)OC(C)(C)C` (configuration not stated), the GI50 with A498 was > 100 µM (inactive); with MOLT-4, 41.8 µM (inactive); with SK-OV-3 it was > 100 µM (inactive); in the experiment with T47D, 83 µM (inactive); in the experiment with UACC-257, 43.5 µM (inactive); in the experiment with SF-295, 63.5 µM (inactive). Besides, the GI50 in the experiment on EKVX was > 100 µM (inactive); in the experiment with HL-60, 39 µM (inactive); with OVCAR-8, > 100 µM (inactive); in the experiment with KM12, > 100 µM (inactive); in the experiment on HOP-62, > 100 µM (inactive); with HOP-92, > 100 µM (inactive). Also, the GI50 with UACC-62 is 73.6 µM (inactive); in the experiment with OVCAR-3, 57 µM (inactive); with OVCAR-4, 81.5 µM (inactive); in the experiment with MDA-MB-435, > 100 µM (inactive); in the experiment with MDA-MB-231, > 100 µM (inactive); with SK-MEL-5 it was 30 µM (inactive). In the experiment with M14, the GI50 is > 100 µM (inactive).
Consider `CCCCOC(=O)C(NC(C(=O)OCCCC)c1cc(C(C)(C)C)c(O)c(C(C)(C)C)c1)c1cc(C(C)(C)C)c(O)c(C(C)(C)C)c1` (configuration not stated), for which the GI50 with A498 was > 100 µM (inactive); in the experiment with MOLT-4 it was 75 µM (inactive); in the experiment with SK-OV-3 it was > 100 µM (inactive); in the experiment on T47D, > 100 µM (inactive); in the experiment on UACC-257, > 100 µM (inactive); in the experiment on SF-295, > 100 µM (inactive). Moreover, the GI50 with EKVX is > 100 µM (inactive); with HL-60 it was > 100 µM (inactive); in the experiment with OVCAR-8, > 100 µM (inactive); in the experiment on KM12, > 100 µM (inactive); in the experiment with HOP-62, > 100 µM (inactive); with HOP-92, 75 µM (inactive). Besides, the GI50 in the experiment on UACC-62, in the experiment with OVCAR-3, with OVCAR-4, in the experiment on MDA-MB-435, with MDA-MB-231 and in the experiment with SK-MEL-5 was > 100 µM (inactive) throughout. For the same molecule, the GI50 with M14 is > 100 µM (inactive).
In the case of `CCNc1ccc2c(c1)Cc1ccccc1-2`, the GI50 in the experiment with A498 is 43.3 µM (inactive); with MOLT-4, 12.9 µM (inactive); with T47D, > 100 µM (inactive); in the experiment with UACC-257, 49.7 µM (inactive); in the experiment on SF-295, 47.6 µM (inactive); in the experiment with EKVX it was 32.4 µM (inactive). In addition, the GI50 was 37.3 µM (inactive) in the experiment on HL-60; 51.5 µM (inactive) with OVCAR-8; 26.1 µM (inactive) in the experiment on KM12; > 100 µM (inactive) in the experiment with HOP-62; 21.2 µM (inactive) in the experiment on HOP-92; 40.7 µM (inactive) with UACC-62. Also, the GI50 was 29 µM (inactive) with OVCAR-3; 75.3 µM (inactive) in the experiment on OVCAR-4; 49.5 µM (inactive) in the experiment with MDA-MB-435; 64.1 µM (inactive) in the experiment with MDA-MB-231; 25.8 µM (inactive) in the experiment on SK-MEL-5; 66.5 µM (inactive) in the experiment with M14.
Regarding `COC(=O)/C=C(/C=C1/C(C#N)=C(N)N(c2ccc(Cl)cc2)C1(C)/C(=C/C(=O)OC)C(=O)OC)C(=O)OC` (configuration not stated), the GI50 in the experiment with A498 is 49.5 µM (inactive); in the experiment on MOLT-4 it was 23 µM (inactive); in the experiment with SK-OV-3 it was 52.5 µM (inactive); with T47D it was 49.1 µM (inactive); in the experiment on UACC-257 it was 63.4 µM (inactive); in the experiment with SF-295, 53.1 µM (inactive). Also, the GI50 in the experiment on EKVX is 46.1 µM (inactive); with HL-60, 15.7 µM (inactive); with OVCAR-8, 33.5 µM (inactive); in the experiment on HOP-62, > 100 µM (inactive); in the experiment on HOP-92, 42.3 µM (inactive); with UACC-62 it was 19.6 µM (inactive). The GI50 with OVCAR-3 is 81.8 µM (inactive); with OVCAR-4, > 100 µM (inactive); with MDA-MB-435, 52.4 µM (inactive); in the experiment on MDA-MB-231, 8.69 µM (inactive); with M14, 76.9 µM (inactive).
In the case of `COC(=O)Nc1nc2cc(NS(=O)(=O)c3ccc(F)cc3)ccc2[nH]1`, the GI50 with A498 is 11.3 µM (inactive); with MOLT-4, 6.75 µM (inactive); with SK-OV-3, 13.1 µM (inactive); with T47D, > 100 µM (inactive); in the experiment on SF-295, 14.5 µM (inactive); in the experiment with EKVX, 31.3 µM (inactive). Moreover, the GI50 with HL-60 is 4.03 µM (inactive); in the experiment on OVCAR-8, 35 µM (inactive); in the experiment on KM12, 4.43 µM (inactive); with HOP-62 it was 43.3 µM (inactive); in the experiment on HOP-92 it was 10.5 µM (inactive); in the experiment on UACC-62, 9.23 µM (inactive). The GI50 with OVCAR-3 is 2.8 µM (inactive); with OVCAR-4 it was 33.9 µM (inactive); with MDA-MB-435 it was 2.65 µM (inactive); in the experiment on MDA-MB-231, 21.9 µM (inactive); with SK-MEL-5, 5.77 µM (inactive); in the experiment on M14, 7.48 µM (inactive).
Take `NNC(=O)C(O)C(O)C(O)CO` (configuration not stated): the GI50 in the experiment on A498, with SK-OV-3, with T47D, in the experiment with UACC-257, in the experiment with SF-295 and in the experiment on EKVX was > 100 µM (inactive) in each case. The GI50 with HL-60, in the experiment on OVCAR-8, with KM12, in the experiment with HOP-62, with HOP-92 and in the experiment on UACC-62 was > 100 µM (inactive) each time. For the same molecule, the GI50 in the experiment on OVCAR-3, in the experiment on OVCAR-4, with MDA-MB-435, in the experiment on MDA-MB-231, in the experiment on SK-MEL-5 and with M14 was > 100 µM (inactive) in each case.
